Assay results from publication PMC9960274, “Peptidic Inhibitors and a Fluorescent Probe for the Selective Inhibition and Labelling of Factor XIIIa Transglutaminase” (Molecules, 2023).
Entries after “also recorded” stand apart in the source; their conditions may differ. Starred links: 1 amine or outer side, 2 acyl side, 3 side chain; linkers in the order of their positions; H or OH if unused. Non-standard residues stand in square brackets, D forms with d. Residues, ends and D or L forms follow the SMILES beside them. *: point of attachment. RhodamineB = CCN(CC)c1ccc2c(-c3ccccc3C(=O)*)c3ccc(=[N+](CC)CC)cc-3oc2c1; X1 = COC(=O)/C=C/CC[C@H](N[*:1])C(=O)[*:2]; X2 = COC(=O)C=CCCC[C@H](N[*:1])C(=O)[*:2]; X3 = COC(=O)C=CC[C@H](N[*:1])C(=O)[*:2]; Nle = CCCC[C@H](N)C(=O)O; Orn = NCCC[C@H](N)C(=O)O; Dab = NCC[C@H](N)C(=O)O; Acryloyl = C=CC(=O)*; Ahx = NCCCCCC(=O)O

Target: T1, Human TG2 (Homo sapiens, UniProt P21980)
T1 construct: made in house
T1 sequence (P21980 1-687): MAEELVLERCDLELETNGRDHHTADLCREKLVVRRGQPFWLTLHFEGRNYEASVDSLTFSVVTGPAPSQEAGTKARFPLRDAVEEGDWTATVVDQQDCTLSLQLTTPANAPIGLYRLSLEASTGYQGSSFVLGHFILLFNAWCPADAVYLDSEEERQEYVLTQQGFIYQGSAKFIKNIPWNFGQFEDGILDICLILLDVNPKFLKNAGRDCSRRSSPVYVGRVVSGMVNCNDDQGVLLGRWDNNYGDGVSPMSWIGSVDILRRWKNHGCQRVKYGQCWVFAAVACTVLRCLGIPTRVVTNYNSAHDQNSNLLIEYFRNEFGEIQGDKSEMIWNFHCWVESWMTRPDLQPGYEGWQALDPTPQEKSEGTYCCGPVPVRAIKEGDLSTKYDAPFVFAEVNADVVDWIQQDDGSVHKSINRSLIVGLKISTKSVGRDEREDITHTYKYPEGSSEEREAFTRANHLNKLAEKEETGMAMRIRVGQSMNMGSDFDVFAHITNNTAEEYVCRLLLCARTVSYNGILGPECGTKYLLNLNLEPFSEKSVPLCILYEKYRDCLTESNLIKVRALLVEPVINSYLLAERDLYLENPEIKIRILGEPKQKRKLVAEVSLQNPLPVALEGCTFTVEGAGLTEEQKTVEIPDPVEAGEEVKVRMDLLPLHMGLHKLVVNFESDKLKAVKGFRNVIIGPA
Experiment: Colorimetric AL5 transamidase assay of TG2 inhibition kinetics
Format: biochemical
Conditions: for TG2 inhibition: up to 360 µM; for TG2 Inh. Mode: Irrev = irreversible, None = no inhibition detected up to 350 μM; for kinact/KI / kinact: irreversible inhibition; for kinact: saturation fit
Description: All inhibitors synthesised herein were evaluated for inhibition against FXIIIa, using the fluorescence-quenched A101 isopeptidase assay, and against TG2, using the colorimetric AL5 transamidase assay. The assay substrates A101 and AL5 both present labile bonds that are cleaved by the activities of their corresponding transglutaminases, resulting in the release of a fluorophore or chromophore moiety, respectively. The rate of consumption of these assay substrates, indicated by increases in fluorescence or absorbance over time, can be detected for measuring enzyme activity. Assays were run in duplicate at constant reporter substrate concentration with varying concentrations of inhibitor. The type of inhibition was determined through visual inspection of the fluorescence-time curvature; termination of the enzymatic reaction with the substrate at a plateau lower than the no-inhibitor positive control is indicative of irreversible inhibition. On the other hand, convergence to a common plateau indicates reversible inhibition.
A colorimetric transamidase assay using chromogenic substrate AL5 (Cbz-Glu(ɣ-p-nitrophenyl ester)Gly-OH) was used to determine TG2 inhibition kinetics as described previously. In brief, assays were conducted at 25 °C in 96-well plates, and absorbance at 405 nm was monitored continuously using a BioTek Synergy 4 plate reader. For each compound, 6 inhibitor concentrations were tested, along with positive (no inhibitor) and negative (no enzyme, no inhibitor) controls. All assays were run in duplicate as separate independent experiments. Human TG2 expressed and purified as described previously and stored in aqueous buffer at −80 °C, was first thawed and diluted to a working concentration of 50 mU/mL in the buffer. The diluted enzyme solution was stored on ice. The appropriate amount of distilled water, 125 μL of aqueous buffer (111 mM MOPS, 15.6 mM CaCl2, pH 6.9), the desired amount of inhibitor (from a DMSO stock solution), and 5.0 μL of AL5 (from a 5.56 mM DMSO solution) were added in that order to 7 Eppendorf tubes to reach final volumes of 250 μL per tube. After mixing thoroughly, 180 μL of the mixture from each tube was transferred to plate wells. To initiate the assay, 20 μL of the diluted TG2 solution was added using a multichannel pipette to each well except the negative control, which was treated with water. The final reaction conditions were pH 6.9, 50.0 mM MOPS, 7.0 mM CaCl2, 100 μM AL5, and 5 mU/mL TG2. […] Data collection was then initiated after mixing by quick aspiration, and the assay was allowed to run for 20 min.
The type of inhibition for both TG2 and FXIIIa was primarily determined by visual inspection of kinetic traces. […] This assumption was tested and validated with inhibitor 47 through an A101 substrate spike experiment. Additional A101 (5 μL of 4000 μM stock in DMSO) was added to enzymatic reactions lacking in inhibitor (positive control) and pre-treated with inhibitor (50, 100, 150, 200 μM) after the initial reactions were complete and fluorescence plateaus had been reached. Data collection at 37 °C was re-commenced immediately after the addition, and fluorescence was monitored over time as previously described. On the other hand, inhibitors producing kinetic curves in which earlier and lower plateaus in fluorescence or absorbance were observed as inhibitor concentration was increased were assumed to be operating through irreversible time-dependent covalent inactivation. This assumption was tested and validated with inhibitor 23 through an A101 substrate spike experiment in which an additional 5 μL of A101 substrate stock solution (4000 μM in DMSO) was added to the positive control and highest inhibitor concentration (200 μM) reaction. […]

[1] = small molecule series, irreversible KI for 87 and 88

Row | Compound | TG2 inhibition (small molecule series) | TG2 Inh. Mode | further results
1 | C=CC(=O)NCC(NC(=O)CC(=O)O)C(=O)N1CCN(C(=O)c2cccc3ccccc23)CC1 (stereo not drawn) [Compound 72] | No inhibition | – | –
2 | CCCC[C@H](NC(=O)[C@H](CC=CC(=O)OC)NC(=O)[C@@H](CC(=O)O)NC(C)=O)C(=O)N[C@@H](CCCC)C(=O)N[C@@H](CC(C)C)C(=O)N1CCC[C@H]1C(=O)N[C@@H](Cc1c[nH]c2ccccc12)C(=O)N1CCC[C@H]1C(=O)O [Compound 45] (Ac-[dD][X3][Nle][Nle]LPWP-OH) | – | No inhibition; also recorded: lack of inhibition; also recorded: None ** | –
3 | C=CC(=O)NCC[C@H](NC(=O)[C@@H](CC(=O)O)NC(C)=O)C(=O)N[C@@H](CCCC)C(=O)N[C@@H](CCCC)C(=O)N[C@@H](CC(C)C)C(=O)N1CCC[C@H]1C(=O)N[C@@H](Cc1c[nH]c2ccccc12)C(=O)N1CCC[C@H]1C(=O)O [Compound 12, Ac-D-Asp-Dab(Acrylamide)-Nle-Nle-Leu-Pro-Trp-Pro-OH] (Ac-[dD][Dab](Acryloyl)[Nle][Nle]LPWP-OH) | – | No inhibition; also recorded: None ** | –
4 | C=CC(=O)NCCC[C@H](NC(=O)[C@@H](CC(=O)O)NC(C)=O)C(=O)N[C@@H](CCCC)C(=O)N[C@@H](CCCC)C(=O)N[C@@H](CC(C)C)C(=O)N1CCC[C@H]1C(=O)N[C@@H](Cc1c[nH]c2ccccc12)C(=O)N1CCC[C@H]1C(=O)O [Compound 13] (Ac-[dD][Orn](Acryloyl)[Nle][Nle]LPWP-OH) | – | No inhibition; also recorded: None ** | –
5 | C=CC(=O)NCCCC[C@H](NC(=O)[C@@H](CC(=O)O)NC(C)=O)C(=O)N[C@@H](CCCC)C(=O)N[C@@H](CCCC)C(=O)N[C@@H](CC(C)C)C(=O)N1CCC[C@H]1C(=O)N[C@@H](Cc1c[nH]c2ccccc12)C(=O)N1CCC[C@H]1C(=O)O [Compound 14] (Ac-[dD]K(Acryloyl)[Nle][Nle]LPWP-OH) | – | No inhibition; also recorded: None ** | –
6 | C=CC(=O)NC(CNC(=O)CCC(=O)O)C(=O)N1CCN(C(=O)c2cccc3ccccc23)CC1 (stereo not drawn) [Compound 84] | No inhibition | – | –
7 | CCCC[C@H](NC(=O)[C@H](CCCC=CC(=O)OC)NC(=O)[C@@H](CC(=O)O)NC(C)=O)C(=O)N[C@@H](CCCC)C(=O)N[C@@H](CC(C)C)C(=O)N1CCC[C@H]1C(=O)N[C@@H](Cc1c[nH]c2ccccc12)C(=O)N1CCC[C@H]1C(=O)O [Compound 47] (Ac-[dD][X2][Nle][Nle]LPWP-OH) | – | Irrev | kinact/KI: 530 M⁻¹ s⁻¹
8 | C=CC(=O)NCC(NC(=O)C1(C(=O)O)CC1)C(=O)N1CCN(S(=O)(=O)c2cccc3c(N(C)C)cccc23)CC1 [Compound 74, Acid-Cyclopropyl-L-Dap(Acryl)-Piperazine-Dansyl] | No inhibition | – | –
9 | CCCC[C@H](NC(=O)[C@H](CC/C=C/C(=O)OC)NC(=O)[C@@H](CC(=O)O)NC(=O)CCCCCNC(=O)[C@@H]1CCCN1C(=O)c1ccccc1-c1c2ccc(=[N+](CC)CC)cc-2oc2cc(N(CC)CC)ccc12)C(=O)N[C@@H](CCCC)C(=O)N[C@@H](CC(C)C)C(=O)N1CCC[C@H]1C(=O)N[C@@H](Cc1c[nH]c2ccccc12)C(=O)N1CCC[C@H]1C(=O)O [Compound 93] (RhodamineB-P[Ahx][dD][X1][Nle][Nle]LPWP-OH) | – | – | kinact/KI: 325 M⁻¹ s⁻¹
10 | Ac-D-Asp-Dap(Acrylamide)-Nle-Nle-Leu-Pro-Trp-Pro-OH [Compound 11] | – | No inhibition; also recorded: None ** | –
11 | COC(=O)C=CCCC(NC(=O)CCC(=O)O)C(=O)N1CCN(C(=O)c2cccc3ccccc23)CC1 (stereo not drawn) [Compound 87] | – | – | kinact/KI: 139 M⁻¹ s⁻¹; kinact: 0.00199 s⁻¹; Ki [1]: 14.3 ± 7 µM
12 | C=CC(=O)NCC(NS(=O)(=O)CC(=O)O)C(=O)N1CCN(S(=O)(=O)c2cccc3c(N(C)C)cccc23)CC1 (stereo not drawn) [Compound 79] | No inhibition | – | –
13 | COC(=O)C=CCCC(NC(=O)c1ccccc1C(=O)O)C(=O)N1CCN(C(=O)c2cccc3ccccc23)CC1 (stereo not drawn) [Compound 88] | – | – | kinact/KI: 104 M⁻¹ s⁻¹; kinact: 0.0022 s⁻¹; KI (inactivation) [1]: 21.2 ± 8.96 µM; Ki [1]: 21.2 ± 9 µM
14 | C=CC(=O)NCC(NC(=O)CCC(=O)O)C(=O)N1CCN(S(=O)(=O)c2cccc3ccccc23)CC1 [Compound 76, Succinyl-L-Dap(Acryl)-Piperazine-Sulfonyl-Naphthalene] | No inhibition | – | –
15 | C=CC(=O)NCC(NC(=O)CCC(=O)O)C(=O)N1CCN(S(=O)(=O)c2cccc3c(N(C)C)cccc23)CC1 [Compound 75, Succinyl-L-Dap(Acryl)-Piperazine-Dansyl] | No inhibition | – | –
16 | C=CC(=O)NCC(NC(=O)CCC(=O)O)C(=O)N1CCN(C(=O)c2cccc3ccccc23)CC1 [Compound 77, Succinyl-L-Dap(Acryl)-Piperazine-Naphthoyl] | No inhibition | – | –
17 | C=CC(=O)NCC(NC(=O)CC(=O)O)C(=O)N1CCN(S(=O)(=O)c2cccc3c(N(C)C)cccc23)CC1 (stereo not drawn) [Compound 71] | No inhibition | – | –
18 | C=CC(=O)NCC(NC(=O)C1(C(=O)OC)CC1)C(=O)N1CCN(S(=O)(=O)c2cccc3c(N(C)C)cccc23)CC1 (stereo not drawn) [Compound 73] | No inhibition | – | –
